Data reported in patent publication US20250145585A1, “HETEROCYCLIC INHIBITORS OF IGF-1R FOR TREATMENT OF DISEASE” (HORIZON THERAPEUTICS IRELAND DAC, priority 2023, published 2025).

Each molecule was assayed against T1, IGF-1R (Homo sapiens, UniProt P08069) (assay: Example B-1: IGF-1R Assay (PC3 cells stimulated with IGF1, AlphaLISA on cell lysates)). Conditions: compound two hours, IGF1 200 ng/mL for 30 min, read-out: IC50, Biological Activity against IGF-1R (Table B1).
T1 construct: expressed in transfected cells
Format: cell-based
Outline: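 IC50 from AlphaLISA read-out of lysed PC3 cells, percent inhibition normalized between vehicle and EC80 controls. Before lysis, cells had 2 h serum-free starvation, 2 h exposure to compound in 3× dilution series, and 30 min IGF1 stimulation at final 200 ng/mL.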

T1 sequence (P08069 31-1367): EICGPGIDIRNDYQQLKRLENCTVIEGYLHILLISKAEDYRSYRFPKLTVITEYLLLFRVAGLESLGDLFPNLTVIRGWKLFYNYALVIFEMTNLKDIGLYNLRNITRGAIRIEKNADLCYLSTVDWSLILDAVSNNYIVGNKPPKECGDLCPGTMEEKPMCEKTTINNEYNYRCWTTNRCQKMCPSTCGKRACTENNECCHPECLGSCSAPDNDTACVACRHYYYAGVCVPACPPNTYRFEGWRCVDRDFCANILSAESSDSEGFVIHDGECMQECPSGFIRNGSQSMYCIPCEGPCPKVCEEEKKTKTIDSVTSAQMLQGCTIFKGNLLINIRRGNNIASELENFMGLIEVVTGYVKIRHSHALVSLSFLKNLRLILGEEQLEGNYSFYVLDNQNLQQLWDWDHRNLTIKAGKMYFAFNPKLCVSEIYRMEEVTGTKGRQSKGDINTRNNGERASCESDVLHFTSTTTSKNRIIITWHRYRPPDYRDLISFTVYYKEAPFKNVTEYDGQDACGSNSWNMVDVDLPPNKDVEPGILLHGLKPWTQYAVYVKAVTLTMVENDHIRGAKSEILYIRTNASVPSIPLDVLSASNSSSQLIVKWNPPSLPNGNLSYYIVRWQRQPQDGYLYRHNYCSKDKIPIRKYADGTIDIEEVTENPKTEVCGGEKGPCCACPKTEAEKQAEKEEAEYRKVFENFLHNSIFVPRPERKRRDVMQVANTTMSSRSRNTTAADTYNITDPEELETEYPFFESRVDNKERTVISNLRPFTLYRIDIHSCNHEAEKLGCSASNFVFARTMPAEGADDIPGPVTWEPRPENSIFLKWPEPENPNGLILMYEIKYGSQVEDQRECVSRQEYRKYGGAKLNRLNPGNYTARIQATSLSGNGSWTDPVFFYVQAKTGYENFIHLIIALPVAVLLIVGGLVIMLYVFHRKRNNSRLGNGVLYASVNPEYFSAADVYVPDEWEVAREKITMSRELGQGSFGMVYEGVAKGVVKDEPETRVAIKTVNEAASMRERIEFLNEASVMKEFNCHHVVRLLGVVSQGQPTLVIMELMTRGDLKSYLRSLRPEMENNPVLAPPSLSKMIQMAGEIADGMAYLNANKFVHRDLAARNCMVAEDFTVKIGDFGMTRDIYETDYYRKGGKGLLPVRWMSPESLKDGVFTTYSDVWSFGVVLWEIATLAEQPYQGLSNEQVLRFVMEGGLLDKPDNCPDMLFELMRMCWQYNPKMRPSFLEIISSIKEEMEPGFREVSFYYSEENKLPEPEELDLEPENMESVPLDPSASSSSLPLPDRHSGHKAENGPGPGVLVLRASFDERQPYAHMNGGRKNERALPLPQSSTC

SMILES	IC50
Cc1c[nH]c2ncc(CN3C(=O)N(c4ccc(SC(F)(F)F)cc4)C(=O)C3(C)C)cc12 [Compound 406, 5,5-dimethyl-1-((3-methyl-1H-pyrrolo[2,3-b]pyridin-5-yl)methyl)-3-(4-((trifluoromethyl)thio)phenyl) imidazolidine-2,4-dione]	2000 to 10000 nM
CC1(C)C(=O)N(c2ccc(CC(F)(F)F)cc2)C(=O)N1Cc1ccnc(N)c1 [Compound 94, 1-((2-aminopyridin-4-yl)methyl)-5,5-dimethyl-3-(4-(2,2,2-trifluoroethyl)phenyl)imidazolidine-2,4-dione]	≤ 500 nM
CC1(C)C(=O)N(c2ccc(C3CCOC3)cc2)C(=O)N1Cc1ccnc(N)c1 (stereo not shown) [Compound 85, 1-((2-aminopyridin-4-yl)methyl)-5,5-dimethyl-3-(4-(tetrahydrofuran-3-yl)phenyl)imidazolidine-2,4-dione]	500 to 2000 nM
CC1(C)C(=O)N(c2ccc(SC(F)(F)F)cc2)C(=O)N1Cc1ccnc(NC(=O)NC23CCC(CC2)C3)c1 [Compound 304, 1-(bicyclo[2.2.1]heptan-1-yl)-3-(4-((5,5-dimethyl-2,4-dioxo-3-(4-((trifluoromethyl)thio)phenyl)imidazolidin-1-yl)methyl)pyridin-2-yl)urea]	500 to 2000 nM
CC1(C)C(=O)N(c2ccc(SC(F)(F)F)cc2)C(=O)N1Cc1ncnc2[nH]ccc12 [Compound 3, 1-((7H-pyrrolo[2,3-d]pyrimidin-4-yl)methyl)-5,5-dimethyl-3-(4-((trifluoromethyl)thio)phenyl)imidazolidine-2,4-dione]	≤ 500 nM
CC1(C)C(=O)N(c2ccc(SC(F)(F)F)cc2)C(=O)N1Cc1ccnc(NC(=O)NC2CCN(CC(F)(F)F)CC2)c1 [Compound 307, 1-(4-((5,5-dimethyl-2,4-dioxo-3-(4-((trifluoromethyl)thio)phenyl)imidazolidin-1-yl)methyl)pyridin-2-yl)-3-(1-(2,2,2-trifluoroethyl)piperidin-4-yl)urea]	≤ 500 nM
CC1(C)C(=O)N(c2ccc(C3(C#N)CC3)cc2)C(=O)N1Cc1ccnc(N)c1 [Compound 82, 1-(4-(3-((2-aminopyridin-4-yl)methyl)-4,4-dimethyl-2,5-dioxoimidazolidin-1-yl)phenyl)cyclopropane-1-carbonitrile]	≤ 500 nM
COC[C@H](C)Nc1cc(CN2C(=O)N(c3ccc(C(C)(C)C)cc3)C(=O)C2(C)C)ccn1 [Compound 269, (S)-3-(4-(tert-butyl)phenyl)-1-((2-((1-methoxypropan-2-yl)amino)pyridin-4-yl)methyl)-5,5-dimethylimidazolidine-2,4-dione]	≤ 500 nM
CC1(C)C(=O)N(c2ccc(SC(F)(F)F)cc2)C(=O)N1Cc1cc(N)ncn1 [Compound 396, 1-((6-aminopyrimidin-4-yl)methyl)-5,5-dimethyl-3-(4-((trifluoromethyl)thio)phenyl) imidazolidine-2,4-dione]	≤ 500 nM
CC(C)Nc1cc(CN2C(=O)N(c3ccc(C45CC(C4)C5)cc3)C(=O)C2(C)C)ccn1 [Compound 117, 3-(4-(bicyclo[1.1.1]pentan-1-yl)phenyl)-1-((2-(isopropylamino)pyridin-4-yl)methyl)-5,5-dimethylimidazolidine-2,4-dione]	≤ 500 nM
CC(C)Nc1cc(CN2C(=O)N(c3ccc(C4(F)CC4)cc3)C(=O)C2(C)C)ccn1 [Compound 99, 3-(4-(1-fluorocyclopropyl)phenyl)-1-((2-(isopropylamino)pyridin-4-yl)methyl)-5,5-dimethylimidazolidine-2,4-dione]	500 to 2000 nM
Nc1cc(CN2C(=O)N(c3ccc(SC(F)(F)F)cc3)C(=O)C23CCC3)ccn1 [Compound 292, 5-((2-aminopyridin-4-yl)methyl)-7-(4-((trifluoromethyl)thio)phenyl)-5,7-diazaspiro[3.4]octane-6,8-dione]	500 to 2000 nM
CC(C)[C@H]1C(=O)N(c2ccc(S(=O)(=O)C(F)(F)F)cc2)C(=O)N1Cc1ccnc(N)c1 [Compound 300, (S)-1-((2-aminopyridin-4-yl)methyl)-5-isopropyl-3-(4-((trifluoromethyl)sulfonyl)phenyl)imidazolidine-2,4-dione]	2000 to 10000 nM
